Experimental data: patent publication US20140357713A1, “ANTIMICROBIAL COMPOUNDS AND METHODS OF USE” (NexMed Holdings, Inc., priority 2012, published 2014)
Where two headings read alike, the source gives them in different places.

Key:
[1] = Solubility (Sol., Table 1); assay type: physicochemical
[2] = system: Escherichia coli (ATCC 25922); assay: Minimum inhibitory concentration (MIC) assay, Example 33; assay type: cell-based; conditions: Escherichia coli
Procedure, shortened: (§1)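 Broth microdilution MIC per CLSI guidelines, in CAMHB with serial 2-fold compound dilutions. Bacterial inocula were adjusted to a 0.5 McFarland standard, then diluted 1:100 and 1:2 in the wells. Plates were incubated at 35 °C, and the MIC was read according to CLSI.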

[3] = system: Pseudomonas aeruginosa (ATCC 27853); assay: as above; assay type: cell-based; conditions: Pseudomonas aeruginosa
Procedure, shortened: as §1

Pseudomonas aeruginosa = assay: Extended time kill study, Example 34 (0 to 24 h); assay type: cell-based
Description: (§2) Time kill studies. Strain suspensions were prepared as described above for the MIC test, and strain suspensions and compound solutions were mixed in the same volume. Samples were removed at specified times including 0 min, 30 sec, 1 min and 5 mins, were diluted in the test medium and streaked on agar. Colonies were counted after 24 to 48 hrs of incubation.
(§3) The time kill studies of Example 33 were extended for five compounds (Nex-59, Nex-60, Nex-61, Nex-62, and Nex-88) using the same methods at longer time periods and at higher multiples of MIC. Nex-88 is a code number for DDAIP.HCl from a different supplier.

Aspergillus niger = assay: Extended time kill study, Example 34 (0 to 24 h); assay type: cell-based
Description: as §2, §3

Candida albicans = assay: Extended time kill study, Example 34 (0 to 24 h); assay type: cell-based
Description: as §2, §3

For `CCCCCCCCCCCCOC(=O)C(C)NCCN(CC)CC.Cl` (stereo not shown) [Nex-62, Dodecyl 2-((2-(diethylamino)ethyl)amino)propanoate dihydrochloride], the Sol. [1] was 48%, the MIC ([2]; ATCC25922, Table 19 summary of Example 33 and Example 35, read-out: MIC) was 100 µg/mL and the MIC ([2]; ATCC25922, n = 1, read-out: MIC E. coli) was 100 µg/mL. The MIC ([2]; ATCC25922, n = 2, read-out: MIC E. coli) was 100 µg/mL, the MIC ([3]; ATCC27853, Table 19 summary, read-out: MIC) was 6250 µg/mL and the MIC ([3]; ATCC27853, n = 1, read-out: MIC P. aeruginosa) was 6250 µg/mL. The MIC ([3]; ATCC27853, n = 2, read-out: MIC P. aeruginosa) was 6250 µg/mL, the “Viable counts, Pseudomonas aeruginosa time kill study” value (Pseudomonas aeruginosa; 1 × MIC, 1 h) was under 1 Log10 CFU/mL and the “Viable counts, Pseudomonas aeruginosa time kill study” value (Pseudomonas aeruginosa; 1 × MIC, 2 h) was under 1 Log10 CFU/mL. For the same compound, the “Viable counts, Pseudomonas aeruginosa time kill study” value (Pseudomonas aeruginosa; 1 × MIC, 4 h) was under 1 Log10 CFU/mL, the “Viable counts, Pseudomonas aeruginosa time kill study” value (Pseudomonas aeruginosa; 1 × MIC, 6 h) was under 1 Log10 CFU/mL and the “Viable counts, Pseudomonas aeruginosa time kill study” value (Pseudomonas aeruginosa; 1 × MIC, 24 h) was under 1 Log10 CFU/mL. The “Viable counts, Pseudomonas aeruginosa time kill study” value (Pseudomonas aeruginosa; 1×MIC, time 0) was 5.20 Log10 CFU/mL, the “Viable counts, Pseudomonas aeruginosa time kill study” value (Pseudomonas aeruginosa; 2 × MIC, 1 h) was under 1 Log10 CFU/mL and the “Viable counts, Pseudomonas aeruginosa time kill study” value (Pseudomonas aeruginosa; 2 × MIC, 2 h) was under 1 Log10 CFU/mL. For the same compound, the “Viable counts, Pseudomonas aeruginosa time kill study” value (Pseudomonas aeruginosa; 2 × MIC, 4 h) was under 1 Log10 CFU/mL, the “Viable counts, Pseudomonas aeruginosa time kill study” value (Pseudomonas aeruginosa; 2 × MIC, 6 h) was under 1 Log10 CFU/mL and the “Viable counts, Pseudomonas aeruginosa time kill study” value (Pseudomonas aeruginosa; 2 × MIC, 24 h) was under 1 Log10 CFU/mL. For the same compound, the “Viable counts, Pseudomonas aeruginosa time kill study” value (Pseudomonas aeruginosa; 2 × MIC, time 0) was 5.25 Log10 CFU/mL, the “Viable counts, Pseudomonas aeruginosa time kill study” value (Pseudomonas aeruginosa; 4 × MIC, 1 h) was under 1 Log10 CFU/mL and the “Viable counts, Pseudomonas aeruginosa time kill study” value (Pseudomonas aeruginosa; 4 × MIC, 2 h) was under 1 Log10 CFU/mL. The “Viable counts, Pseudomonas aeruginosa time kill study” value (Pseudomonas aeruginosa; 4 × MIC, 4 h) was under 1 Log10 CFU/mL, the “Viable counts, Pseudomonas aeruginosa time kill study” value (Pseudomonas aeruginosa; 4 × MIC, 6 h) was under 1 Log10 CFU/mL and the “Viable counts, Pseudomonas aeruginosa time kill study” value (Pseudomonas aeruginosa; 4 × MIC, 24 h) was under 1 Log10 CFU/mL. For the same compound, the “Viable counts, Pseudomonas aeruginosa time kill study” value (Pseudomonas aeruginosa; 4 × MIC, time 0) was 5.23 Log10 CFU/mL, the “Viable counts in Log10 CFU/mL” value (Aspergillus niger; 1 × MIC, 1 h) was 5.53 Log10 CFU/mL and the “Viable counts in Log10 CFU/mL” value (Aspergillus niger; 1 × MIC, 2 h) was 5.51 Log10 CFU/mL. For the same compound, the “Viable counts in Log10 CFU/mL” value (Aspergillus niger; 1 × MIC, 4 h) was 5.15 Log10 CFU/mL, the “Viable counts in Log10 CFU/mL” value (Aspergillus niger; 1 × MIC, 6 h) was 4.78 Log10 CFU/mL and the “Viable counts in Log10 CFU/mL” value (Aspergillus niger; 1 × MIC, 24 h) was 4 Log10 CFU/mL. For the same compound, the “Viable counts in Log10 CFU/mL” value (Aspergillus niger; 1 × MIC, 0 h) was 5.51 Log10 CFU/mL, the “Viable counts in Log10 CFU/mL” value (Aspergillus niger; 2 × MIC, 1 h) was 5.48 Log10 CFU/mL and the “Viable counts in Log10 CFU/mL” value (Aspergillus niger; 2 × MIC, 2 h) was 5.57 Log10 CFU/mL. The “Viable counts in Log10 CFU/mL” value (Aspergillus niger; 2 × MIC, 4 h) was 5.08 Log10 CFU/mL, the “Viable counts in Log10 CFU/mL” value (Aspergillus niger; 2 × MIC, 6 h) was 5.38 Log10 CFU/mL and the “Viable counts in Log10 CFU/mL” value (Aspergillus niger; 2 × MIC, 24 h) was 5.58 Log10 CFU/mL. For the same compound, the “Viable counts in Log10 CFU/mL” value (Aspergillus niger; 2 × MIC, 0 h) was 5.49 Log10 CFU/mL, the “Viable counts in Log10 CFU/mL” value (Aspergillus niger; 4 × MIC, 1 h) was 5.49 Log10 CFU/mL and the “Viable counts in Log10 CFU/mL” value (Aspergillus niger; 4 × MIC, 2 h) was 5.49 Log10 CFU/mL. The “Viable counts in Log10 CFU/mL” value (Aspergillus niger; 4 × MIC, 4 h) was 5.00 Log10 CFU/mL, the “Viable counts in Log10 CFU/mL” value (Aspergillus niger; 4 × MIC, 6 h) was 5.20 Log10 CFU/mL and the “Viable counts in Log10 CFU/mL” value (Aspergillus niger; 4 × MIC, 24 h) was 3.85 Log10 CFU/mL. The “Viable counts in Log10 CFU/mL” value (Aspergillus niger; 4 × MIC, 0 h) was 5.56 Log10 CFU/mL, the “Viable counts in Log10 CFU/mL” value (Candida albicans; 1 × MIC, 1 h) was 5.75 Log10 CFU/mL and the “Viable counts in Log10 CFU/mL” value (Candida albicans; 1 × MIC, 2 h) was 5.78 Log10 CFU/mL. The “Viable counts in Log10 CFU/mL” value (Candida albicans; 1 × MIC, 4 h) was 6.04 Log10 CFU/mL, the “Viable counts in Log10 CFU/mL” value (Candida albicans; 1 × MIC, 6 h) was 6.21 Log10 CFU/mL and the “Viable counts in Log10 CFU/mL” value (Candida albicans; 1 × MIC, 24 h) was over 6 Log10 CFU/mL. The “Viable counts in Log10 CFU/mL” value (Candida albicans; 1 × MIC, 0 h) was 5.74 Log10 CFU/mL, the “Viable counts in Log10 CFU/mL” value (Candida albicans; 2 × MIC, 1 h) was 5.68 Log10 CFU/mL and the “Viable counts in Log10 CFU/mL” value (Candida albicans; 2 × MIC, 2 h) was 5.67 Log10 CFU/mL. For the same compound, the “Viable counts in Log10 CFU/mL” value (Candida albicans; 2 × MIC, 4 h) was 5.68 Log10 CFU/mL, the “Viable counts in Log10 CFU/mL” value (Candida albicans; 2 × MIC, 6 h) was 5.58 Log10 CFU/mL and the “Viable counts in Log10 CFU/mL” value (Candida albicans; 2 × MIC, 24 h) was over 6 Log10 CFU/mL. The “Viable counts in Log10 CFU/mL” value (Candida albicans; 2 × MIC, 0 h) was 5.76 Log10 CFU/mL, the “Viable counts in Log10 CFU/mL” value (Candida albicans; 4 × MIC, 1 h) was 5.32 Log10 CFU/mL and the “Viable counts in Log10 CFU/mL” value (Candida albicans; 4 × MIC, 2 h) was 5.33 Log10 CFU/mL. The “Viable counts in Log10 CFU/mL” value (Candida albicans; 4 × MIC, 4 h) was 5.00 Log10 CFU/mL, the “Viable counts in Log10 CFU/mL” value (Candida albicans; 4 × MIC, 6 h) was 4.53 Log10 CFU/mL and the “Viable counts in Log10 CFU/mL” value (Candida albicans; 4 × MIC, 24 h) was under 1 Log10 CFU/mL. The “Viable counts in Log10 CFU/mL” value (Candida albicans; 4 × MIC, 0 h) was 5.69 Log10 CFU/mL.
